Data on seven compounds can be found in patent publication US4321212A, “Method for preparing an optically active α-cyano-3-phenoxybenzyl 2-(4-substituted-phenyl)isovalerate” (Sumitomo Chemical Company Limited, priority 1980, dated 1982).

For one experiment, the system named is houseflies. As to the kind of experiment: Topical application to female adult WHO-strain houseflies (Test Example 2). The format is in vivo, housefly, WHO-strain (standard susceptible strain). The settings on record: 0.5 μl acetone solution to the thorax, female adults, 24 hours. The procedure: The compounds of this invention, (1), (2), (3), (4) and (5), were diluted with acetone to a predetermined concentration, and 0.5 μl of each solution was topically applied to the thorax of female adult WHO-strain houseflies (standard susceptible strain) with a microsyringe. The flies were placed in plastic cups each having a diameter of 11 cm in which a bait (3% sugar water) was placed. 24 hours later, the alive and dead was evaluated to determine the LD50 (median lethal dose) (μg/housefly).

The test system of the next experiment is carmine mites. The experiment is described as follows: Spray test against carmine mites on potted kidney beans (Test Example 3). The format is in vivo, carmine mite. The conditions noted are these: 20% emulsifiable concentrate diluted 500-fold with water, 10 ml/pot, after 10 days. The procedure: 10 to 15 female adult carmine mites were placed on each leaf of potted kidney beans (2-leaf stage) 9 days old after seeding. After standing in a constant temperature room at 27° C. for a week, a lot of mites in various growth stages were observed on the beans. Each of the emulsifiable concentrates prepared from the compounds of this invention, (1), (2), (3), (4), and (5), in the procedures described in Formulation Example 2 was diluted 500-fold with water and sprayed to the beans on a turntable in a proportion of 10 ml/pot.

The subject of the next experiment is tobacco cutworms. The experiment is described as follows: Leaf-dip test on fourth instar larvae of tobacco cutworms (Test Example 1). The settings on record: foliar, cabbage leaf dip 1 minute, emulsifiable concentrate diluted with water, 24 hours, 10 larvae per group, three replications, read-out: LC50 (concentration required for 50% death). The class given is in vivo, tobacco cutworm. How it is done:
Each of the emulsifiable concentrates prepared from the compounds of this invention, (4) and (5), in the procedures described in Formulation Example 2 was diluted with water to a pre-determined concentration, and mixed with 3,000 times by weight based on the diluted solution of a spreader (Shin-Rino, a registered trademark of Nippon Noyaku Co., Ltd., for a mixture containing 20% of an alkylphenol polyethylene glycol ether and 12% of a salt of lignin sulfonic acid).
The dried leaves were placed in plastic cups (diameter 10 cm, height 4 cm) at a rate of 2 leaves/cup, and the fourth instar larvae of tobacco cutworms were liberated therein. The dead and alive was evaluated after 24 hours and the values of LC50 (concentration required for 50% death) were obtained.
Experiments of three replications were carried out using 10 larvae per group.

In brackets after ≈: the same amount, converted by molar mass.

Regarding `CC(C)C(C(=O)OC(C#N)c1cccc(Oc2ccccc2)c1)c1ccc(OC(F)F)cc1` (racemic) [(b), reference compound], the “LD50 (median lethal dose)” value with houseflies was 0.15 μg/housefly.
The same measure, in the same setting: then `COc1ccc(C(C(=O)OC(C#N)c2cccc(Oc3ccccc3)c2)C(C)C)cc1` (racemic) [Reference Compound (a), reference compound], with 0.35 μg/housefly.
In the case of `COc1ccc([C@@H](C(=O)OC(C#N)c2cccc(Oc3ccccc3)c2)C(C)C)cc1` (stereo partly drawn) [Compound (1), α-cyano-3-phenoxybenzyl S-(+)-2-(4-methoxyphenyl)isovalerate], the “LD50 (median lethal dose)” value in the experiment on houseflies came to 0.18 μg/housefly. The “damage of the kidney beans by the mites” value in the experiment with carmine mites is listed as “hardly observed”.
The matching figures for `COc1ccc([C@@H](C(=O)OC(C#N)c2cccc(Oc3ccccc3)c2)C(C)C)cc1` (stereo partly drawn) [Compound (2), α-cyano-3-phenoxybenzyl S-(+)-2-(4-methoxyphenyl)isovalerate]: 0.13 μg/housefly and “hardly observed”.
The matching figures for `COc1ccc([C@@H](C(=O)O[C@H](C#N)c2cccc(Oc3ccccc3)c2)C(C)C)cc1` [Compound (3), (S)-α-cyano-3-phenoxybenzyl S-(+)-2-(4-methoxyphenyl)isovalerate]: 0.10 μg/housefly and “hardly observed”.
Turning to `CC(C)[C@H](C(=O)O[C@H](C#N)c1cccc(Oc2ccccc2)c1)c1ccc(OC(F)F)cc1` [Compound (4), α-cyano-3-phenoxybenzyl S-(+)-2-(4-difluoromethoxyphenyl)isovalerate], the LC50 in the experiment on tobacco cutworms stood at 5.9 µg/mL (≈ 13.1 µM). Besides, the “LD50 (median lethal dose)” value with houseflies is given as 0.038 μg/housefly. The “damage of the kidney beans by the mites” value with carmine mites is “hardly observed”.
For the compound `CC(C)[C@H](C(=O)OC(C#N)c1cccc(Oc2ccccc2)c1)c1ccc(OC(F)F)cc1` (stereo partly drawn) [Compound (5), α-cyano-3-phenoxybenzyl S-(+)-2-(4-difluoromethoxyphenyl)isovalerate], in the experiment on tobacco cutworms, the LC50 is 6.9 µg/mL (≈ 15.3 µM). For the same compound, the “LD50 (median lethal dose)” value in the experiment on houseflies is listed as 0.042 μg/housefly. Also, the “damage of the kidney beans by the mites” value with carmine mites is “hardly observed”.
